“And” between values parts separate entries of the source, which are not always exact repeats. Equal values may be shown once.
How the values were obtained:
Rattus norvegicus [1] = settings: for LD50 / LC50: acute
Oryctolagus sp. = settings: for LD50: acute; for NOAEL: reproduction developmental
Rattus norvegicus [2] = settings: for LOEL / NOEL: Hershberger; for LEL: uterotrophic, Active
[3] = duration: 10 days, oral, gavage, Sprague-Dawley, active + Antiandrogenic + anti-androgenic
[4] = reproduction developmental, duration: 4 weeks, inhalation, particle, Sprague-Dawley
[5] = short-term, duration: 4 weeks, oral, diet, Crl:CD(SD)

CCNc1ccccc1 [N-Ethylaniline]
LD50 (Rattus norvegicus [1]; dermal): 1920 mg/kg
LC50 (Rattus norvegicus [1]; inhalation, Sprague-Dawley): ≥ 1.13 mg/L and ≤ 1.48 mg/L
LD50 (Rattus norvegicus [1]; oral): 300 mg/kg
LD50 (Rattus norvegicus [1]; oral, gavage, Sprague-Dawley): ≥ 332 mg/kg and ≤ 402 mg/kg
LD50 (Oryctolagus sp.; dermal, New Zealand): > 2000 mg/kg

[Na+].[S-]c1nc2ccccc2s1 [Sodium 2-mercaptobenzothiolate]
LC50 (Rattus norvegicus [1]; inhalation): > 6.5 mg/L
LC50 (Rattus norvegicus [1]; inhalation, Sprague-Dawley): > 1.3 mg/L
LD50 (Rattus norvegicus [1]; oral): 4350 mg/kg
LD50 (Rattus norvegicus [1]; oral, Sprague-Dawley): 1480 mg/kg and 4350 mg/kg
LD50 (Oryctolagus sp.; dermal): > 7940 mg/kg
LD50 (Oryctolagus sp.; dermal, occlusive, New Zealand): > 7940 mg/kg

CC(C)CC(C)Nc1ccc(Nc2ccccc2)cc1 (stereo not drawn) [6PPD]
LD50 (Rattus norvegicus [1]; oral, Sprague-Dawley): > 5000 mg/kg
LD50 (Rattus norvegicus [1]; oral, gavage, Sprague-Dawley): 3580 mg/kg
NOAEL (Rattus norvegicus [1]; developmental, duration: 10 days, oral, gavage, Sprague-Dawley): > 250 mg/kg-day
NOAEL (Rattus norvegicus [1]; reproduction developmental, duration: 23 weeks, oral, diet, Sprague-Dawley, generation: F0): 100 ppm
NOAEL (Rattus norvegicus [1]; reproduction developmental, duration: 23 weeks, oral, diet, Sprague-Dawley, generation: F1): 1000 ppm
NOAEL (Rattus norvegicus [1]; reproduction developmental, duration: 23 weeks, oral, diet, Sprague-Dawley, generation: F2): 1000 ppm
NOAEL (Rattus norvegicus [1]; reproduction developmental, duration: 10 days, oral, gavage, F, Sprague-Dawley): 50 mg/kg-day
NOAEL (Rattus norvegicus [1]; reproduction developmental, duration: 21 days, oral, gavage, Sprague-Dawley, generation: F0): > 1000 ppm
NOAEL (Rattus norvegicus [1]; reproduction developmental, duration: 21 days, oral, gavage, Sprague-Dawley, generation: F1): > 1000 ppm
LOAEL (Rattus norvegicus [1]; short-term, duration: 4 weeks, inhalation, particle, Sprague-Dawley): 50 mg/m3
NOAEL (Rattus norvegicus [1]; subchronic, duration: 90 days, oral, diet, Sprague-Dawley): 24 mg/kg-day
LD50 (Oryctolagus sp.; dermal, occlusive, New Zealand): > 7940 mg/kg
NOAEL (Oryctolagus sp.; duration: 13 days, oral, F, New Zealand): 30 mg/kg-day

O=S(=O)([O-])c1ccc(Nc2nc(Nc3ccc(/C=C/c4ccc(Nc5nc(Nc6ccc(S(=O)(=O)[O-])cc6)nc(N(CCO)CCO)n5)cc4S(=O)(=O)[O-])c(S(=O)(=O)[O-])c3)nc(N(CCO)CCO)n2)cc1.[Na+].[Na+].[Na+].[Na+] [C.I. Fluorescent Brightener 220]
LD50 (Rattus norvegicus [1]; oral, gavage): > 15000 mg/kg
NOAEL (Rattus norvegicus [1]; chronic, duration: 104 weeks, oral, diet, F, Wistar): 780 mg/kg-day
NOAEL (Rattus norvegicus [1]; chronic, duration: 104 weeks, oral, diet, M, Wistar): 780 mg/kg-day
NOAEL (Rattus norvegicus [1]; reproduction developmental, duration: 9 months, oral, gavage, Sprague-Dawley, generation: F1): 1000 mg/kg-day
NOAEL (Rattus norvegicus [1]; reproduction developmental, duration: 9 months, oral, gavage, Sprague-Dawley, generation: F2): 1000 mg/kg-day
NOAEL (Rattus norvegicus [1]; reproduction developmental, duration: 13 days, oral, gavage, F, Sprague-Dawley): 1000 mg/kg-day
NOAEL (Rattus norvegicus [1]; reproduction developmental, duration: 13 days, oral, gavage, Sprague-Dawley, generation: F1): 1000 mg/kg-day
NOAEL (Rattus norvegicus [1]; reproduction developmental, oral, gavage, Sprague-Dawley, generation: F0): 1000 mg/kg-day
NOAEL (Rattus norvegicus [1]; reproduction developmental, oral, gavage, Sprague-Dawley, generation: F1): 1000 mg/kg-day
NOAEL (Rattus norvegicus [1]; subchronic, duration: 10 weeks, oral, gavage, F, Wistar): 500 mg/kg-day
NOAEL (Rattus norvegicus [1]; subchronic, duration: 10 weeks, oral, gavage, M, Wistar): 500 mg/kg-day
NOAEL (Oryctolagus sp.; duration: 21 days, oral, gavage, F, New Zealand): 100 mg/kg-day
NOAEL (Oryctolagus sp.; duration: 21 days, oral, gavage, New Zealand, generation: F1): 300 mg/kg-day and 800 mg/kg-day

O=C(Cl)c1ccccc1 [Benzoyl chloride]
LC50 (Rattus norvegicus [1]; inhalation): 1.87 mg/L
LC50 (Rattus norvegicus [1]; inhalation, Wistar): 1.45 mg/L and > 1.98 mg/L and > 2.34 mg/L
LD50 (Rattus norvegicus [1]; oral): 2460 mg/kg and 1900 mg/kg
LD50 (Rattus norvegicus [1]; oral, Spartan): 2620 mg/kg
LD50 (Rattus norvegicus [1]; oral, gavage, Wistar): 2530 mg/kg
LD50 (Oryctolagus sp.; dermal): 790 mg/kg
LD50 (Oryctolagus sp.; dermal, occlusive, New Zealand): > 2000 mg/kg

CC#C[C@]1(O)CC[C@H]2[C@@H]3CCC4=CC(=O)CCC4=C3[C@@H](c3ccc(N(C)C)cc3)C[C@@]21C [Mifepristone]
LOEL (Rattus norvegicus [2]; [3]): 25 mg/kg-day
NOEL (Rattus norvegicus [2]; [3]): 10 mg/kg-day
LEL (Rattus norvegicus [2]; duration: 4 days, injection, intraperitoneal): 100 mg/kg-day

C[C@]12CC[C@@H]3c4ccc(OC(=O)c5ccccc5)cc4CC[C@H]3[C@@H]1CC[C@@H]2O [Estradiol benzoate]
LOEL (Rattus norvegicus [2]; duration: 7 days, injection, subcutaneous, Wistar, active + Androgenic + androgenic): 0.0025 mg/kg-day

CCCCC(CC)COC(=O)c1ccc(O)cc1 (stereo not drawn) [2-Ethylhexyl p-hydroxybenzoate]
LEL (Rattus norvegicus [2]; duration: 3 days, injection, subcutaneous): 200 mg/kg-day and 199 mg/kg-day

c1ccc2sc(SN3CCOCC3)nc2c1 [N-Oxydiethylene-2-benzothiazylsulfenamide]
LC50 (Rattus norvegicus [1]; inhalation, particle): > 151 mg/L
LD50 (Rattus norvegicus [1]; oral): 7000 mg/kg
LD50 (Rattus norvegicus [1]; oral, gavage, Sprague-Dawley): 12600 mg/kg and > 7940 mg/kg
LD50 (Rattus norvegicus [1]; oral, gavage, Wistar): > 10000 mg/kg
NOAEL (Rattus norvegicus [1]; developmental, duration: 10 days, oral, gavage): 1000 mg/kg-day
NOAEL (Rattus norvegicus [1]; developmental, duration: 21 days, oral, diet, Wistar): 270 mg/kg-day
LOAEL (Rattus norvegicus [1]; [4]): 10.2 mg/m3
NOAEL (Rattus norvegicus [1]; [4]): 9.8 mg/m3
NOAEL (Rattus norvegicus [1]; reproduction developmental, duration: 10 days, oral, gavage, F): 100 mg/kg-day
NOAEL (Rattus norvegicus [1]; reproduction developmental, duration: 21 days, oral, diet, F, Wistar): 270 mg/kg-day
LOAEL (Rattus norvegicus [1]; [5]): 500 mg/kg-day
NOAEL (Rattus norvegicus [1]; [5]): 200 mg/kg-day
LD50 (Oryctolagus sp.; dermal, occlusive, New Zealand): > 5010 mg/kg
NOAEL (Oryctolagus sp.; duration: 21 days, dermal, New Zealand): 2000 mg/kg-day

CC[C@H](C)[C@H]1O[C@]2(C=C[C@@H]1C)C[C@@H]1C[C@@H](C/C=C(\C)[C@@H](O[C@H]3C[C@H](OC)[C@@H](O[C@H]4C[C@H](OC)[C@@H](O)[C@H](C)O4)[C@H](C)O3)[C@@H](C)/C=C/C=C3\CO[C@@H]4[C@H](O)C(C)=C[C@@H](C(=O)O1)[C@]34O)O2.CO[C@H]1C[C@H](O[C@H]2[C@H](C)O[C@@H](O[C@@H]3/C(C)=C/C[C@@H]4C[C@@H](C[C@]5(C=C[C@H](C)[C@@H](C(C)C)O5)O4)OC(=O)[C@@H]4C=C(C)[C@@H](O)[C@H]5OC/C(=C\C=C\[C@@H]3C)[C@]54O)C[C@@H]2OC)O[C@@H](C)[C@@H]1O [Abamectin]
NOEL (Rattus norvegicus [2]; duration: 10 days, oral, gavage, Sprague-Dawley, inactive + Negative + Negative + anti-androgenic + negative): 1.5 mg/kg-day

CCCCCCCCCc1cc2ccccc2c(S(=O)(=O)O)c1CCCCCCCCC [Dinonylnaphthalenesulfonic acid]
LC50 (Rattus norvegicus [1]; Inhalation, Wistar): > 200 mg/L
LD50 (Rattus norvegicus [1]; oral, gavage, Sprague-Dawley): > 5000 mg/kg
LD50 (Oryctolagus sp.; dermal, New Zealand): > 2000 mg/kg

Nc1ncn[nH]1 [Amitrole]
NOEL (Rattus norvegicus [2]; duration: 10 days, oral, gavage, Wistar, inactive + Negative + Negative + anti-androgenic + negative on gonad/AST / significant thyroid effects beginning at 25 / increased SV wt …): 125 mg/kg-day

— EPA's ToxValDB 9.5
